In PubChem BioAssay AID463204 (Broad Institute, 2010):
The source made the active and inactive calls.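 The calls were made as follows: active = AC50 no more than ten times the top concentration tested, that is within one log above it; inconclusive = flat curve fit with activity between 30% and 70%, or invalid poor fit; inactive = AC50 beyond ten times the top tested dose.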

System: S. cerevisiae Mot1-301 ts growth rescue, BacTiter-Glo ATP luminescence
Experiment: restored Mot1-301 yeast growth at 38.5C – whole organism, S. cerevisiae, Mot1-301 ts mutant, luminescence, dose retest, SUMOylation pathway inhibitor project, confirmation (AID 463204);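 also: growth at restrictive 38.5 degrees C of Mot1-301 OY566 strain; actives raise luminescence by restoring growth of the ts mutant at high temperature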

Row | Structure (SMILES) | AC50
1 | CCCC(O)(CCC)C(=O)NNc1ccc(C)cc1 | > 42 µM (inactive)
2 | Cc1cccc(N=Nc2ccc(N(C)C)cc2)c1 | > 42 µM (inactive)
3 | Cc1ccc(N(CC(=O)NCCc2ccc(Cl)cc2)S(=O)(=O)c2c(C)noc2C)cc1 | > 42 µM (inactive)
4 | Cc1ccc(CNC(=O)CCn2cc(-c3ccc(C)cc3)nc2CCN)cc1 | > 42 µM (inactive)
5 | CC1CCN(CCCOc2ccc(OCc3ccccc3)cc2)CC1 | > 42 µM (inactive)
6 | CCN(CC1COc2ccccc2O1)C(=S)NCCCN(C)C (stereo not given) | > 42 µM (inactive)
7 | Cc1ccc(-n2nnnc2SCC#N)cc1 | > 42 µM (inactive)
8 | CCOC(=O)c1c(C)[nH]c(C(=O)COC(=O)c2ccncc2)c1C | > 42 µM (inactive)
9 | c1coc(C2OCC3(CO2)COC(c2ccco2)OC3)c1 (stereo not given) | > 42 µM (inactive)
10 | COCCCNCC(O)COc1cccc2[nH]c(C)cc12 (stereo not given) | > 42 µM (inactive)
11 | Cc1ccc(C(=O)O)cc1[N+](=O)[O-] | > 42 µM (inactive)
12 | CCN(CC)c1nc2c(c(=O)[nH]c(=O)n2C)n1CCOc1ccccc1 | > 42 µM (inactive)
13 | O=C(O)CC(NC(=O)OCc1ccccc1)c1ccc(Br)cc1 (stereo not given) | > 42 µM (inactive)
14 | COc1ccc(C)cc1S(=O)(=O)N1CCC(C(=O)NCCc2ccccc2)CC1 | > 42 µM (inactive)
15 | CCN1CCN(C(=O)c2ccc3nc(-c4ccccc4)c(-c4ccccc4)nc3c2)CC1 | > 42 µM (inactive)
16 | Cc1cc(C(=O)COc2cccc3cccnc23)c(C)n1C | > 42 µM (inactive)
17 | COc1ccc(NC(=O)c2ccc(COc3ccccc3OC)o2)cc1OC | > 42 µM (inactive)
18 | Cc1ccc(-c2nc(CS(=O)(=O)CC(=O)NC3CCCCC3C)c(C)o2)cc1 (stereo not given) | > 42 µM (inactive)
19 | O=C(COC(=O)[C@@H]1CC(O)CN1S(=O)(=O)c1ccccc1[N+](=O)[O-])Nc1ccc2ccccc2c1 (stereo not given in full) | > 42 µM (inactive)
20 | CCOc1ccc(N(CC(=O)NC2CCC(C)CC2)S(=O)(=O)c2c(C)noc2C)cc1 (stereo not given) | > 42 µM (inactive)
21 | S=c1[nH]ccn1-c1cccc(Cl)c1 | > 42 µM (inactive)
22 | COCC(=O)Nc1c(C(=O)Nc2ccc3c(c2)OCO3)oc2ccccc12 | > 42 µM (inactive)
23 | O=C(NCc1ccco1)C1CC(=O)N(c2ccc(Cl)cc2)C1 (stereo not given) | > 42 µM (inactive)
24 | CCN(CC)S(=O)(=O)c1cc(NC(=O)COC(=O)CCc2nc3ccccc3s2)ccc1C | > 42 µM (inactive)
25 | COc1cccc(S(=O)(=O)Nc2cccc(C(=O)N3CCOCC3)c2)c1 | > 42 µM (inactive)

Row | Structure (SMILES) | AC50
26 | O=C(Nc1cccc(O)c1)C(Cc1ccccc1)N1C(=O)c2cccc3cccc(c23)C1=O (stereo not given) | > 42 µM (inactive)
27 | COc1ccccc1CNC(=O)CCC(=O)Nc1nnc(C(C)C)s1 | > 42 µM (inactive)
28 | CCCCCC(=O)Nc1nnn(CCC)n1 | > 42 µM (inactive)
29 | COc1ccc(C(=O)Nn2c(SCC(=O)NCc3ccccc3)nc3ccccc3c2=O)cc1 | > 42 µM (inactive)
30 | CCNCCNC(=O)c1c(O)c2c([nH]c1=O)CCCC2 | > 42 µM (inactive)
31 | CCC(=O)N(Cc1ccc2c(c1)OCO2)Cc1cc2cc(OC)ccc2[nH]c1=O | > 42 µM (inactive)
32 | CSc1ccccc1-c1nc(-c2ccncc2)no1 | > 42 µM (inactive)
33 | COc1cccc(/C=N/NC(=O)CNC(=O)c2ccco2)c1O | > 42 µM (inactive)
34 | Cc1ccc(N(C(C)C(=O)O)S(=O)(=O)c2c(C)n[nH]c2C)cc1 (stereo not given) | > 42 µM (inactive)
35 | O=S1(=O)CC(N2CCCCC2)C(N2CCCCC2)C1 (stereo not given) | > 42 µM (inactive)
36 | O=C(c1cc(N2C(=O)C3C4CCC(C4)C3C2=O)ccc1Cl)N1CCN(c2ccccc2)CC1 (stereo not given) | > 42 µM (inactive)
37 | O=C(N/N=C/c1ccccn1)NC12CC3CC(CC(C3)C1)C2 | > 42 µM (inactive)
38 | C=CCn1c(CCC)nc2ccccc21 | > 42 µM (inactive)
39 | O=CNCCCc1nc2ccccc2n1CCc1ccccc1 | > 42 µM (inactive)
40 | COc1ccc(S(=O)(=O)N2CCc3cc4c(cc3C2C)OCCCO4)cc1 (stereo not given) | > 42 µM (inactive)
41 | O=C1CCCN1CCC(=O)N1CCCC(N2CCN(c3ccccc3F)CC2)C1 (stereo not given) | > 42 µM (inactive)
42 | Cc1c(C(=O)OCC(=O)Nc2ccc(S(N)(=O)=O)cc2)oc2c1ccc1ccccc12 | > 42 µM (inactive)
43 | CC(OC(=O)c1cc(S(=O)(=O)N2CCOCC2)ccc1F)C(=O)NCc1ccc2c(c1)OCO2 (stereo not given) | > 42 µM (inactive)
44 | CCn1cc(C(=O)N(C)c2ccc(OC)cc2OC)c2cc(OC)c(OC)cc2c1=O | > 42 µM (inactive)
45 | COC(=O)CNC(=O)CSc1ccccn1 | > 42 µM (inactive)
46 | COc1ccc(NC(=O)CN2C(=O)c3ccccc3S2(=O)=O)cc1OC | > 42 µM (inactive)
47 | COc1ccccc1C(=O)OCC(=O)NC(=O)NCc1ccccc1 | > 42 µM (inactive)
48 | CS(=O)(=O)N1CCC(Oc2ccccc2C(=O)N2CCNC(=O)C2)CC1 | > 42 µM (inactive)
49 | Cc1ccc(C(=O)/C=C/c2ccc(-c3ccccc3[N+](=O)[O-])o2)cc1 | > 42 µM (inactive)
50 | COCCn1c(=O)[nH]c(=O)c2cc(C(=O)c3cc(Cl)ccc3O)cnc21 | > 42 µM (inactive)
